From US10414775B2 (Merck Sharp & Dohme Corp., priority 2016, dated 2019)

Target: T1, Human CYP8B1 (Homo sapiens, UniProt Q9UNU6)
T1 construct: tissue Xenotech; host or cells: human liver microsomes
T1 sequence (Q9UNU6 1-501): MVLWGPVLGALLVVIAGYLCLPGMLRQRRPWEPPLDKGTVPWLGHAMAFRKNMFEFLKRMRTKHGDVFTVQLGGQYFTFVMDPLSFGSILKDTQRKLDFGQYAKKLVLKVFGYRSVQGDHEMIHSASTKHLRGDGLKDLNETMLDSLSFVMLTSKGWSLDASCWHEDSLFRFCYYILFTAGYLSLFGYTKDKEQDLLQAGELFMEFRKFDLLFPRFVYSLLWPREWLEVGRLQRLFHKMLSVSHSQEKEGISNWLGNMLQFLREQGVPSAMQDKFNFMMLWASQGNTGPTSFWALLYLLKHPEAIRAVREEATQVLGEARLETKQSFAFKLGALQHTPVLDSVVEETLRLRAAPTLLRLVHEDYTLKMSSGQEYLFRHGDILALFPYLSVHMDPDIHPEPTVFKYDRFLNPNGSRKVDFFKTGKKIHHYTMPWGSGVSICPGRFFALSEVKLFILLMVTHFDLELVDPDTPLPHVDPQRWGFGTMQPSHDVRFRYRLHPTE
Test: Human Cyp8B1 Liver Microsome Assay
Assay type: biochemical
Settings: human liver microsomes; substrate 7α-hydroxy-4-cholesten-3-one, NADPH; 30 min pre-incubation, 45 min reaction; RapidFire MS readout
Protocol: Human Cyp8B1 Liver Microsome Assay To a 384 well polypropylene plate (Corning 3656), 250 nl of inhibitor in 100% DMSO (1.25% final DMSO concentration) was pre-plated using an Echo liquid handler (Labcyte Inc.). Human liver microsomes (Xenotech) were diluted in of 0.1 M phosphate buffer, pH 7.4, at a concentration of 65 μg/ml and 15 μL was added to the 384 well plate. The plates were incubated at ambient room temperature for 30 minutes. After pre-incubation with inhibitor, the reaction was initiated by adding 5 μl of substrate solution (4.0 μM 7α-hydroxy-4-cholesten-3-one(Toronto Research Chemicals), 2 mM of NADPH (Sigma), 0.1 M phosphate buffer (pH 7.4). The reaction was carried out for 45 minutes at ambient room temperature and was quenched by the addition of 50 μl of acetonitrile+0.1% vol/vol formic acid (FA)+300 nM 7α-hydroxy-4-cholesten-3-one-d7 (Toronto Research Chemicals). The plates were sealed and centrifuged at 3000 rpm for 5 minutes. Plates were loaded onto the Agilent RapidFire RF300 HTMS system, wherein samples were sipped for 600 ms, and the sip sensor detection signals the diversion of sample from the loop onto a C4 solid phase extraction (SPE) cartridge, where salts are washed off for 2500 ms with a mobile phase of water with 0.1% vol/vol FA at a flow rate of 1.5 ml/min. The column path is switched, and the sample is eluted off the cartridge and flowed into the mass spectrometer for 3000 ms with a mobile phase of acetonitrile and 0.1% vol/vol FA at a flow rate of 1.25 ml/min. The aspirator tip was washed separately with water and acetonitrile between sample aspirations (each for 600 ms) to minimize carryover contamination. Mass spectrometry was carried out using a Sciex API4000 triple quadrupole mass spectrometer (Applied Biosystems, Concord, ON, Canada) equipped with electrospray ionization (ESI) operated in the positive-ion mode. The product 7α, 12α-dihydroxy-4-cholesten-3-one and internal standard 7α-hydroxy-4-cholsten-3-one-d7 were detected using multiple reaction monitoring (MRM) with Q1/Q3 transitions at m/z 417.3 to 381.3 and m/z 408.3 to 390.3, respectively, with a dwell time of 100 ms and a collision energy of 24 V for each transition. The mass spectrometer used an ESI voltage of 5000 V and a source temperature of 650° C. Extracted ion chromatograms for each transition were integrated and processed using the RapidFire Integrator software. The data for each well were normalized by monitoring product conversion with the ratio of AUCproduct/(AUCinternal standard). The data was then fitted to a four parameter logistic fit using ActivityBase Software to calculate an IC50 of the inhibitor.

Row | IC50 | SMILES
1 | 3040 nM | Cc1cc(N2CC[C@H](C(=O)N3CCn4c(nnc4C(F)(F)F)C3)[C@H](C)C2)c2cc(Cl)ccc2n1 [Example 13, [(3S,4S)-1-(6-chloro-2-methylquinolin-4-yl)-3-methylpiperidin-4-yl][3-(trifluoromethyl)-5,6-dihydro[1,2,4]tria-zolo[4,3-a]pyrazin-7(8H)-yl]methanone]
2 | 237 nM | COc1ccc2c(N3CC[C@H](C(=O)N4CCn5c(nnc5C(F)(F)F)C4)[C@H](C)C3)ccnc2c1 [Example 23, [(3S,4S)-1-(7-methoxyquinolin-4-yl)-3-methylpiperidin-4-yl][3-(trifluoromethyl)-5,6-dihydro[1,2,4]tria-zolo[4,3-a]pyrazin-7(8H)-yl]methanone]
3 | 19 nM | C[C@@H]1CN(c2ccnc3cc(F)ccc23)CC[C@@H]1C(=O)N1CCn2c(nnc2C(F)(F)F)C1 [Example 22, [(3S,4S)-1-(7-fluoroquinolin-4-yl)-3-methylpiperidin-4-yl][3-(trifluoromethyl)-5,6-dihydro[1,2,4]tria-zolo[4,3-a]pyrazin-7(8H)-yl]methanone]
4 | 1.3 nM | C[C@@H]1CN(c2c(Cl)cnc3nc(C(F)(F)F)ccc23)CC[C@@H]1C(=O)N1CCn2c(nnc2C(F)(F)F)C1 [Example 37, {(3S,4S)-1-[3-chloro-7-(trifluoromethyl)-1,8-naphthyridin-4-yl]-3-methylpiperidin-4-yl}[3-(trifluoromethyl)-5,6-dihydro[1,2,4]triazolo[4,3-a]pyrazin-7(8H)-yl]methanone]
5 | 2700 nM | C[C@@H]1CN(c2ccnc3nc(C(F)(F)F)ccc23)CC[C@@H]1C(=O)N1CCn2c(nnc2C(F)(F)F)C1 [Example 31, {(3S,4S)-3-methyl-1-[7-(trifluoromethyl)-1,8-naphthyridin-4-yl]piperidin-4-yl}[3-(trifluoromethyl)-5,6-dihydro[1,2,4]tria-zolo[4,3-a]pyrazin-7(8H)-yl]methanone]
6 | 8.2 nM | C[C@@H]1CN(c2ccnc3c2CCN(C(=O)OC(C)(C)C)C3)CC[C@@H]1C(=O)N1CCn2c(nnc2C(F)(F)F)C1 [Example 59, tert-butyl 4-((3S,4S)-3-methyl-4-(3-(trifluoromethyl)-5,6,7,8-tetrahydro-[1,2,4]triazolo[4,3-a]pyrazine-7-carbonyl)piperidin-1-yl)-5,6-dihydro-1,7-naphthyridine-7(8H)-carboxylate]
7 | 0.66 nM | C[C@@H]1CN(c2ccnc3cc(C4CC4)ccc23)CC[C@@H]1C(=O)N1CCn2c(nnc2C(F)(F)F)C1 [Example 28, 7-cyclopropyl-4-[(3S,4S)-3-methyl-4-{[3-(trifluoromethyl)-5,6-dihydro[1,2,4]tria-zolo[4,3-a]pyrazin-7(8H)-yl]carbonyl}piper-idin-1-yl]quinolinium chloride]
8 | 0.25 nM | C[C@@H]1CN(c2c(Cl)cnc3cc(C4CC4)ccc23)CC[C@@H]1C(=O)N1CCn2c(nnc2C(F)(F)F)C1 [Example 50, [(3S,4S)-1-(3-chloro-7-cyclopropyl-quinolin-4-yl)-3-methylpiperidin-4-yl][3-(trifluoromethyl)-5,6-dihydro[1,2,4]triazolo[4,3-a]pyrazin-7(8H) - yl]methanone]
9 | 1.4 nM | Cc1coc(-c2ccc3c(N4CC[C@H](C(=O)N5CCn6c(nnc6C(F)(F)F)C5)[C@H](C)C4)ccnc3c2)n1 [Example 75, ((3S,4S)-3-methyl-1-(7-(4-methyloxazol-2-yl)quinolin-4-yl)piperidin-4-yl)(3-(trifluoromethyl)-5,6-dihydro-[1,2,4]triazolo[4,3-a]pyrazin-7(8H)-yl)methanone]
10 | 0.28 nM | CC(=O)c1ccc2c(N3CC[C@H](C(=O)N4CCn5c(nnc5C(F)(F)F)C4)[C@H](C)C3)c(Cl)cnc2c1 [Example 43, 1-{3-chloro-4-[(3S,4S)-3-methyl-4-{[3-(trifluoromethyl)-5,6-dihydro[1,2,4]triazolo[4,3-a]pyrazin-7(8H)-yl]carbonyl}piperidin-1-yl]quinolin-7-yl}ethanone]
11 | 18 nM | COc1ccc2nccc(N3CC[C@H](C(=O)N4CCn5c(nnc5C(F)(F)F)C4)[C@H](C)C3)c2n1 [Example 26, [(3S,4S)-1-(6-methoxy-1,5-naphthyridin-4-yl)-3-methylpiperidin-4-yl][3-(trifluoromethyl)-5,6-dihydro[1,2,4]tria-zolo[4,3-a]pyrazin-7(8H)-yl]methanone]
12 | 1.2 nM | C[C@@H]1CN(c2c(Cl)cnc3cc(S(C)(=O)=O)ccc23)CC[C@@H]1C(=O)N1CCn2c(nnc2C(F)(F)F)C1 [Example 72, ((3S,4S)-1-(3-chloro-7-(methylsulfonyl)quinolin-4-yl)-3-methylpiperidin-4-yl)(3-(trifluoromethyl)-5,6-dihydro-[1,2,4]triazolo[4,3-a]pyrazin-7(8H)-yl)methanone]
13 | 1 nM | C[C@@H]1CN(c2c(Cl)cnc3c2CCN(CC2CC2)C3)CC[C@@H]1C(=O)N1CCn2c(nnc2C(F)(F)F)C1 [Example 61, ((3S,4S)-1-(3-chloro-7-(cyclopropylmethyl)-5,6,7,8-tetrahydro-1,7-naphthyridin-4-yl)-3-methylpiperidin-4-yl)(3-(trifluoromethyl)-5,6-dihydro-[1,2,4]triazolo[4,3-a]pyrazin-7(8H)-yl)methanone]
14 | 0.2 nM | C[C@@H]1CN(c2c(Cl)cnc3cc(-c4ncco4)ccc23)CC[C@@H]1C(=O)N1CCc2c(noc2C(F)(F)F)C1 [Example 77, ((3S,4S)-1-(3-chloro-7-(oxazol-2-yl)quinolin-4-yl)-3-methylpiperidin-4-yl)(3-(trifluoromethyl)-4,5-dihydroisoxazolo [3,4-c]pyridin-6(7H)-yl)methanone]
15 | 3.6 nM | C[C@@H]1CN(c2ccnc3cc(OCC4CC4)ccc23)CC[C@@H]1C(=O)N1CCn2c(nnc2C(F)(F)F)C1 [Example 53, {(3S,4S)-1-[7-(cyclopropylmethoxy)quinolin-4-yl]-3-methylpiperidin-4-yl}[3-(trifluoromethyl)-5,6-dihydro[1,2,4]triazolo[4,3-a]pyrazin-7(8H)-yl]methanone]
16 | 368 nM | CCNC(=O)c1ccc2c(N3CC[C@H](C(=O)N4CCn5c(nnc5C(F)(F)F)C4)[C@H](C)C3)ccnc2c1 [Example 69, N-ethyl-4-((3S,4S)-3-methyl-4-(3-(trifluoromethyl)-5,6,7,8-tetrahydro-[1,2,4]triazolo [4,3-a]pyrazine-7-carbonyl)piperidin-1-yl) quinoline-7-carboxamide]
17 | 307 nM | COc1cnc2c(N3CC[C@H](C(=O)N4CCn5c(nnc5C(F)(F)F)C4)[C@H](C)C3)ccnc2c1 [Example 25, [(3S,4S)-1-(7-methoxy-1,5-naphthyridin-4-yl)-3-methylpiperidin-4-yl][3-(trifluoromethyl)-5,6-dihydro[1,2,4]tria-zolo[4,3-a]pyrazin-7(8H)-yl]methanone]
18 | 4.5 nM | CC(C)NC(=O)c1ccc2c(N3CC[C@H](C(=O)N4CCn5c(nnc5C(F)(F)F)C4)[C@H](C)C3)ccnc2c1 [Example 66, N-isopropyl-4-((3 S,4S)-3-methyl-4-(3-(trifluoromethyl)-5,6,7,8-tetrahydro-[1,2,4]triazolo[4,3-a]pyrazine-7-carbonyl)piperidin-1-yl)quinoline-7-carboxamide]
19 | 0.2 nM | COc1ccc2c(N3CC[C@H](C(=O)N4CCn5c(nnc5C(F)(F)F)C4)[C@H](C)C3)c(Cl)cnc2c1 [Example 3, ((3S,4S)-1-(3-chloro-7-methoxyquinolin-4-yl)-3-methylpiperidin-4-yl)(3-(trifluoromethyl)-5,6-dihydro-[1,2,4]triazolo[4,3-a]pyrazin-7(8H)-yl)methanone]
